Assay results published in US20190053495A1, “POLYMERIC TOPICAL ANTISEPTIC COMPOUND AND METHOD OF USE” (priority 2017, published 2019).

Key:
[1] = 2 g/kg applied to 10% of shaven skin, ten test animals, Study Day 1; cited from earlier work
[2] = Film thickness of skin scaffold by Dual Polarization Interferometry; format: physicochemical
Description: Film thickness of skin scaffold of polymer 1-Octadecanaminium NN Dimethyl (3 Trihydroxysilyl)propyl chloride polymer with Dual Polarization interferometry.

| MASS ([2]; 40 seconds post injection) [ngmm^−2] | THICKNESS ([2]; 40 seconds post injection) [nm] | MASS ([2]; 10 minutes post injection) [ngmm^−2] | THICKNESS ([2]; 10 minutes post injection) [nm] | Compound | Skin reaction at the application site [1] |
| --- | --- | --- | --- | --- | --- |
| – | – | – | – | alkyldimethylbenzylammonium chloride [Benzalkonium chloride] | all test animals exhibit erythema, and edema at the application site |
| 3.83 | 41.31 | 3.76 | 33.51 | CCCCCCCCCCCCCCCCCC[N+](C)(C)CCC[Si](OC)(OC)OC.[Cl-] [ODTMSPC, 1-Octadecanaminium, N,N, Dimethyl-N-[(3-trimethoxysilyl)propyl] chloride] | – |
